Laboratory results from article PMC6010131, “Antileishmanial activity of sulphonamide nanoemulsions targeting the β-carbonic anhydrase from Leishmania species” (Journal of Enzyme Inhibition and Medicinal Chemistry, 2018).
≈ marks a conversion by molar mass, not a printed value. Marks after values point to notes of the source that are not given here.

Assays:
[1] = set-up: method as in PMID 25825339; settings: cited from earlier work
[2] = tested on: L. infantum MHOM/BR/1974/PP75 promastigotes; test: Antileishmanial microdilution assay (resazurin), promastigotes; format: cell-based, Leishmania infantum
Procedure: (§1) Leishmania (infantum MHOM/BR/1974/PP75 and L. amazonensis IFLA/BR/1967/PH8 were donated by the Leishmania Type Culture Collection (LTCC) of Oswaldo Cruz Institute/Fiocruz (Rio de Janeiro, Brazil). […] The antileishmanial activity of the sulphonamide NEs was evaluated by the microdilution technique. […] L. amazonensis and L. infantum promastigote forms were harvest at late log phase of growth (96 h), washed twice with PBS and resuspended in fresh culture medium to a final concentration of 5 × 10^6 parasites/ml. […] The minimal inhibitory concentration (MIC) was determined as the lowest concentration capable of inhibiting in vitro growth of the parasites. […] The selective index (SI) for promastigote forms of L. amazonensis and L. infantum was calculated by the ratio between the CC50 for RAW 264.7 macrophages and the IC50 for the parasites.

[3] = tested on: L. amazonensis IFLA/BR/1967/PH8 promastigotes; test: as above; format: cell-based, Leishmania amazonensis
Procedure: as §1

Cytotoxic assay (MTT) = format: cell-based; settings: mouse, RAW 264.7 macrophages
Procedure: RAW 264.7 macrophages were obtained from the National Institute of Metrology, Quality and Technology (Inmetro, Rio de Janeiro, Brazil) and maintained in DMEM medium supplemented with 10% FBS at 37 °C in a 5% controlled CO2 atmosphere. Cell maintenance was performed every 48–72 h, time necessary for cells to achieve confluent monolayers.
Sulphonamide NEs cytotoxicity was performed using tetrazolium dye MTT colorimetric assay. RAW 264.7 macrophages were harvest after confluent monolayer achievement. The cells were washed twice with PBS and a cellular suspension of 10^6 cells/ml was prepared in fresh DMEM culture medium. Aliquots of 100 µl of the cellular suspension were placed into polystyrene 96-well plates, and then incubated at 37 °C in a 5% CO2 atmosphere for 6 h to allow for adherence of macrophages. After this period, the adherent cells were subjected to treatment with several concentrations of the sulphonamide NEs (1–128 µM), and then incubated for additional 48 h. […] Macrophage viability was determined after formazan crystals solubilisation with DMSO followed by the absorbance measurement at 570 nm using a SpectraMax M5 spectrophotometer (Molecular Devices, Los Angeles, CA). The 50% cytotoxic concentrations were calculated by regression analysis using Microsoft Excel 2013 software.

Human erythrocytes = test: Haemolytic assay; format: cell-based; settings: human erythrocytes, 1 h, 37 °C
Procedure: (§2) Haemolytic activity was evaluated as described previously by Ishnava and Shah with a slight modification. Human erythrocytes from healthy individuals were collected in vacuum tubes containing EDTA as anti-coagulant. The erythrocytes were harvested by centrifugation for 10 m at 2500 rpm at 20 °C, and washed three times in PBS. To the pellet, PBS was added to yield a 10% (v/v) erythrocytes/PBS suspension. The 10% suspension was then diluted 1:10 in PBS. Aliquots of 100 µl of erythrocytes suspension was added, in triplicate, to 100 µl of a two-fold dilution series of sulphonamides NEs and amphotericin B (at concentrations of 128, 64, 32, 16, 8, 4, 2, and 1 µM, respectively, in the same buffer) in microtubes. Negative and positive controls were performed by replacing drug dilution with PBS or with 200 µl of […] for the total haemolysis, respectively. The tubes were incubated for 1 h at 37 °C and then centrifuged for 10 min at 2000 rpm at 20 °C. From the supernatant fluid, 150 µl was transferred to a flat-bottomed microtiter plate, and the absorbance was measured spectrophotometrically at 540 nm. Five concentrations are required for HC50 calculation. The following formula was used to find out the percentage of haemolytic activity: [A540 treated sample − A540 of buffer)/(A540 of Triton X-100 − A540 of buffer)] × 100.

Haemolytic assay = format: cell-based, Human; settings: human, human erythrocytes (suspension in PBS), read-out: Haemolysis (%)
Procedure: as §2

L. donovani = tested on: L. donovani; set-up: method as in PMID 25825339; settings: against L. donovani; cited from earlier work
[4] = Dissolution of sulphonamides in clove oil; format: physicochemical; settings: concentration of 5 mg/ml
Procedure: The oil-in-water (O/W) NEs were prepared by high-energy method using an ultrasound processor (Hielscher model UP100H, Hielscher GmbH, Berlin, Germany), according to the method descripted by Senna et al.[31]. Oil phase was prepared by sulphonamides dissolution in the clove oil. An amount of 5 mg of drug was weighted in a microtube and 1 ml of clove oil was added. The tube was agitated for 1 min for obtaining of the drug solution (5 mg/ml). Aqueous phase was prepared by adding 1 g of Pluronic F127® in 8 g of water. Then 1 ml of oil phase (drug dissolved in clove oil) was added to 9 ml of aqueous phase (Pluronic F127 in water) under constant ultrasound homogenisation (amplitude 80%, continuous cycle no. 1) during 5 min in an ice bath at 5 °C to prevent heating of the dispersion. A transparent NE was obtained at a concentration of 500 µg/ml.
The NEs were produced with 10% of oil phase. NEs were prepared also without the drug in order to evaluate the stability, droplet size and PDI. […] Phase separation and precipitation of the drug were not observed, and the NE was considered stable in the concentration of up to 500 µg/ml.

[5] = Leishmania infantum, L. infantum promastigotes, 120 h
[6] = Leishmania amazonensis, L. amazonensis promastigotes, 120 h

C[C@@H]1[C@H](O)[C@@H](C)/C=C/C=C/C=C/C=C/C=C/C=C/C=C/[C@H](O[C@@H]2O[C@H](C)[C@@H](O)[C@H](N)[C@@H]2O)C[C@@H]2O[C@](O)(C[C@@H](O)C[C@@H](O)[C@H](O)CC[C@@H](O)C[C@@H](O)CC(=O)O[C@H]1C)C[C@H](O)[C@H]2C(=O)O [AMP, amphotericin B]
haemotoxicity [1]: 69.8%
IS50 (selectivity index = CC50/IC50) ([2]; CC50 RAW 264.7 / IC50 L. infantum): 1.59 ± 0.01^d
IC50 [2, 5]: 670 ± 100 nM
IC90 [2, 5]: 1010 ± 30 nM
MIC ([2]; Leishmania infantum, L. infantum promastigotes, 120 h, 26 °C, read-out: MIC (minimum inhibitory concentration)): 4 µM (≈ 3.7 µg/mL)
IS50 (selectivity index = CC50/IC50) ([3]; CC50 RAW 264.7 / IC50 L. amazonensis): 1.78 ± 0.01^b
IC50 [3, 6]: 610 ± 10 nM
IC90 [3, 6]: 1230 ± 230 nM
MIC ([3]; Leishmania amazonensis, L. amazonensis promastigotes, 120 h, 26 °C, read-out: MIC (minimum inhibitory concentration)): 4 µM (≈ 3.7 µg/mL)
CC50 at 48 h (Cytotoxic assay (MTT)): 1070 ± 1490 nM
HC50 (Human erythrocytes): 27.93 ± 1.71^b µM
hemolysis at 1 h, 2 µM (Haemolytic assay; 2 µM): 1.18 ± 0.31%
hemolysis at 1 h, 4 µM (Haemolytic assay; 4 µM): 2.01 ± 0.02%
hemolysis at 1 h, 8 µM (Haemolytic assay; 8 µM): 2.09 ± 0.15%
hemolysis at 1 h, 16 µM (Haemolytic assay; 16 µM): 20.8 ± 0.5%
hemolysis at 1 h, 32 µM (Haemolytic assay; 32 µM): 57.8 ± 6.7%
hemolysis at 1 h, 64 µM (Haemolytic assay; 64 µM): 75.7 ± 5.24%
hemolysis at 1 h, 128 µM (Haemolytic assay; 128 µM): 100%
hemolysis at 1 h, 256 µM (Haemolytic assay; 256 µM): 100%
IC50 (L. donovani): 0.214 ± 0.06 µg/mL (≈ 0.232 µM)

NS(=O)(=O)c1nnc(NC(=O)Cc2ccc(Cl)cc2)s1 [Sulphonamide 5B]
Dissolution in clove oil [4]: easily dissolved

NS(=O)(=O)c1ccc(CCNC(=O)Cc2ccccc2Br)cc1 [Sulphonamide 3W]
Dissolution in clove oil [4]: easily dissolved

COc1ccc(CC(=O)Nc2nnc(S(N)(=O)=O)s2)cc1 [Sulphonamide 5D]
Dissolution in clove oil [4]: easily dissolved

NS(=O)(=O)c1ccc(NC(=O)Cc2ccccc2Br)c(F)c1 [Sulphonamide 3G]
Dissolution in clove oil [4]: easily dissolved

NS(=O)(=O)c1nnc(NC(=O)Cc2ccccc2Br)s1 [Sulphonamide 5C]
Dissolution in clove oil [4]: easily dissolved

NS(=O)(=O)c1ccc(NC(=O)Cc2ccc(Cl)cc2)c(F)c1 [Sulphonamide 3F]
Dissolution in clove oil [4]: easily dissolved
